From patent EP3095787A1, “[…] ACTIVE COMPOUNDS AS DAG-LIPASE INHIBITORS” (Universiteit Leiden, priority 2015, dated 2016)

These compounds were tested against T1, FAAH (Mus musculus, UniProt O08914) (assay: Gel based competitive ABPP selectivity assay with TAMRA-FP in mouse brain proteome (FAAH band)). Settings: 10 µM inhibitor; TAMRA-FP 500 nM; mouse brain proteome; vehicle set to 100%.
T1 construct: For gel based ABPP experiments mouse brain proteome (2.0 mg/mL, 20 µL) was preincubated; from tissue; host or cells: mouse brain proteome
T1 sequence (O08914 1-579): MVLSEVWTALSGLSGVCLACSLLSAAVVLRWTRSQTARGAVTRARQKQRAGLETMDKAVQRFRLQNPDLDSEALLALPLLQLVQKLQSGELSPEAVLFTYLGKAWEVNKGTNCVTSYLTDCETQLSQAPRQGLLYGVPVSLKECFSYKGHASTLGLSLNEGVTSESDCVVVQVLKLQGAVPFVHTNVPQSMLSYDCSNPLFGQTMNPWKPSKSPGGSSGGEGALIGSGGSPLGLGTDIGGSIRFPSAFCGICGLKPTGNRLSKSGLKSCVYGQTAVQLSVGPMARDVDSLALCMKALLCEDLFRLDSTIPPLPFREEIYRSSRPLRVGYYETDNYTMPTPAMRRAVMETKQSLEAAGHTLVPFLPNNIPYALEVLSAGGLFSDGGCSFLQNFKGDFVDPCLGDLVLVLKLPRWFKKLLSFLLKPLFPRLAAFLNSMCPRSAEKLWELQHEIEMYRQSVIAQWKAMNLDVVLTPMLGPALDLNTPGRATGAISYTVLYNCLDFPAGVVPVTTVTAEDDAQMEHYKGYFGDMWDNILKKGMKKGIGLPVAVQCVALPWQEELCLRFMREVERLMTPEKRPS
Assay type: biochemical
Experimental: For gel based ABPP experiments mouse brain proteome (2.0 mg/mL, 20 µL) was preincubated for 30 min with vehicle (DMSO) or compound to be tested in 0.5 µL DMSO at rt. And subsequently treated with 500 nM (final concentration) TAMRA-FP (TAMRA-FP was bought at Thermo Fischer) for 15 minutes at rt. The reactions were quenched with 10 µL standard 3 x SDS page sample buffer. The samples were directly loaded and resolved on SDS page gel (10 % acrylamide). The gels were scanned with a ChemiDoc MP sytem (Biorad, Cy 3 settings, 605/50 filter) and analyzed using Image Lab 4.1.
The percentage effect on FAAH was determined by measuring the integrated optical intensity of the band corresponding to FAAH (∼ 63 kD for mouse) using Image lab software. This activity was corrected for the total protein loading per lane as determined by coomassie staining and imaging with a ChemiDoc™ MP sytem (Biorad) followed by determination of the integrated optical intensity per lane by using Image Lab 4.1 software. The intensity of the protein bands from the samples treated with vehicle was set to 100%. […] N/A means less than 50% probe displacement at 10 µM inhibitor concentration.
In the case of Cc1ccc(-c2cnc3nc(C(=O)Cc4ccccc4)oc3c2)cc1 [Compound 34, 2-phenyl-1-(6-(p-tolyl)oxazolo[4,5-b]pyridin-2-yl)ethan-1-one], the “FAAH ABPP (10 µm) % Eff.” value is reported as “N/A (N/A means less than 50% probe displacement at 10 µM inhibitor concentration)”. In the case of Cc1ccc(-c2cnc3nc(C(=O)CCc4ccccc4)oc3c2)cc1 [Compound 35, 3-phenyl-1-(6-(p-tolyl)oxazolo[4,5-b]pyridin-2-yl)propan-1-one], the “FAAH ABPP (10 µm) % Eff.” value is reported as “N/A (N/A means less than 50% probe displacement at 10 µM inhibitor concentration)”. With Cc1ccc(-c2cnc3nc(C(=O)CCCc4ccccc4)oc3c2)cc1 [Compound 36, 4-phenyl-1-(6-(p-tolyl)oxazolo[4,5-b]pyridin-2-yl)butan-1-one] the “FAAH ABPP (10 µm) % Eff.” value was “N/A (N/A means less than 50% probe displacement at 10 µM inhibitor concentration)”. O=C(CCCCCc1ccccc1)c1nc2ncc(-c3ccncc3)cc2o1 [Compound 37, 6-phenyl-1-(6-(pyridin-4-yl)oxazolo[4,5-b]pyridin-2-yl)hexan-1-one] was tested, and the “FAAH ABPP (10 µm) % Eff.” value was “N/A (N/A means less than 50% probe displacement at 10 µM inhibitor concentration)”. O=C(CCCCCc1ccccc1)c1nc2ncc(-c3ccccc3Cl)cc2o1 [Compound 38, 1-(6-(2-chlorophenyl)oxazolo[4,5-b]pyridin-2-yl)-6-phenylhexan-1-one] was tested, and the “FAAH ABPP (10 µm) % Eff.” value was “N/A (N/A means less than 50% probe displacement at 10 µM inhibitor concentration)”. With O=C(CCCCCc1ccccc1)c1nc2ncc(-c3cccc(Cl)c3)cc2o1 [Compound 39, 1-(6-(3-chlorophenyl)oxazolo[4,5-b]pyridin-2-yl)-6-phenylhexan-1-one] the “FAAH ABPP (10 µm) % Eff.” value was “N/A (N/A means less than 50% probe displacement at 10 µM inhibitor concentration)”. With O=C(CCCCCc1ccccc1)c1nc2ncc(-c3ccc(Cl)cc3)cc2o1 [Compound 40, 1-(6-(4-chlorophenyl)oxazolo[4,5-b]pyridin-2-yl)-6-phenylhexan-1-one] the “FAAH ABPP (10 µm) % Eff.” value was “N/A (N/A means less than 50% probe displacement at 10 µM inhibitor concentration)”. For COc1ccc(-c2cnc3nc(C(=O)CCCCCc4ccccc4)oc3c2)cc1 [Compound 41, 1-(6-(4-methoxyphenyl)oxazolo[4,5-b]pyridin-2-yl)-6-phenylhexan-1-one], the “FAAH ABPP (10 µm) % Eff.” value was “N/A (N/A means less than 50% probe displacement at 10 µM inhibitor concentration)”. For Cc1ccc(-c2cnc3nc(C(=O)CCC(F)(F)F)oc3c2)cc1 [Compound 42, 4,4,4-trifluoro-1-(6-(p-tolyl)oxazolo[4,5-b]pyridin-2-yl)butan-1-one], the “FAAH ABPP (10 µm) % Eff.” value was “N/A (N/A means less than 50% probe displacement at 10 µM inhibitor concentration)”. With Cc1ccc(-c2cnc3nc(C(=O)CCCCC(F)(F)F)oc3c2)cc1 [Compound 43, 6,6,6-trifluoro-1-(6-(p-tolyl)oxazolo[4,5-b]pyridin-2-yl)hexan-1-one] the “FAAH ABPP (10 µm) % Eff.” value was “N/A (N/A means less than 50% probe displacement at 10 µM inhibitor concentration)”. For O=C(CCCCCc1ccccc1)c1nc2ncc(-c3cccs3)cc2o1 [Compound 44, 6-phenyl-1-(6-(thiophen-2-yl)oxazolo[4,5-b]pyridin-2-yl)hexan-1-one], the “FAAH ABPP (10 µm) % Eff.” value was “N/A (N/A means less than 50% probe displacement at 10 µM inhibitor concentration)”. For O=C(CCCCCc1ccccc1)c1nc2ncc(-c3nnn[nH]3)cc2o1 [Compound 45, 1-(6-(1H-tetrazol-5-yl)oxazolo[4,5-b]pyridin-2-yl)-6-phenylhexan-1-one], the “FAAH ABPP (10 µm) % Eff.” value was “N/A (N/A means less than 50% probe displacement at 10 µM inhibitor concentration)”. For Cn1cccc1-c1cnc2nc(C(=O)CCCCCc3ccccc3)oc2c1 [Compound 46, 1-(6-(1-methyl-1H-pyrrol-2-yl)oxazolo[4,5-b]pyridin-2-yl)-6-phenylhexan-1-one], the “FAAH ABPP (10 µm) % Eff.” value was “N/A (N/A means less than 50% probe displacement at 10 µM inhibitor concentration)”. Cc1ccccc1-c1cnc2nc(C(=O)CCCCCc3ccc(F)cc3)oc2c1 [Compound 47, 6-(4-fluorophenyl)-1-(6-(o-tolyl)oxazolo[4,5-b]pyridin-2-yl)hexan-1-one] was tested, and the “FAAH ABPP (10 µm) % Eff.” value was “N/A (N/A means less than 50% probe displacement at 10 µM inhibitor concentration)”. In the case of O=C(CCCCCc1ccncc1)c1nc2ncc(-c3ccccc3F)cc2o1 [Compound 48, 1-(6-(2-fluorophenyl)oxazolo[4,5-b]pyridin-2-yl)-6-(pyridin-4-yl)hexan-1-one], the “FAAH ABPP (10 µm) % Eff.” value is reported as “N/A (N/A means less than 50% probe displacement at 10 µM inhibitor concentration)”. Cc1ccccc1-c1cnc2nc(C(=O)CCCCOc3ccc(F)cc3)oc2c1 [Compound 49, 5-(4-fluorophenoxy)-1-(6-(o-tolyl)oxazolo[4,5-b]pyridin-2-yl)pentan-1-one] was tested, and the “FAAH ABPP (10 µm) % Eff.” value was “N/A (N/A means less than 50% probe displacement at 10 µM inhibitor concentration)”. With Cc1cccc(C)c1-c1cnc2nc(C(=O)CCCCCc3ccccc3)oc2c1 [Compound 50, 1-(6-(2,6-dimethylphenyl)oxazolo[4,5-b]pyridin-2-yl)-6-phenylhexan-1-one] the “FAAH ABPP (10 µm) % Eff.” value was “N/A (N/A means less than 50% probe displacement at 10 µM inhibitor concentration)”. In the case of N#Cc1ccc(-c2cnc3nc(C(=O)CCCCCc4ccccc4)oc3c2)cc1 [Compound 51, 4-(2-(6-phenylhexanoyl)oxazolo[4,5-b]pyridin-6-yl)benzonitrile], the “FAAH ABPP (10 µm) % Eff.” value is reported as “N/A (N/A means less than 50% probe displacement at 10 µM inhibitor concentration)”. For O=C(CCCCCc1ccccc1)c1nc2ncc(-c3cccc(F)c3)cc2o1 [Compound 52, 1-(6-(3-fluorophenyl)oxazolo[4,5-b]pyridin-2-yl)-6-phenylhexan-1-one], the “FAAH ABPP (10 µm) % Eff.” value was “N/A (N/A means less than 50% probe displacement at 10 µM inhibitor concentration)”. With O=C(CCCCCc1ccccc1)c1nc2ncc(-c3ccccn3)cc2o1 [Compound 53, 6-phenyl-1-(6-(pyridin-2-yl)oxazolo[4,5-b]pyridin-2-yl)hexan-1-one] the “FAAH ABPP (10 µm) % Eff.” value was “N/A (N/A means less than 50% probe displacement at 10 µM inhibitor concentration)”. For Cc1ccccc1-c1cnc2nc(C(=O)CCCCCc3ccccc3)oc2c1 [Compound 54, 6-phenyl-1-(6-(o-tolyl)oxazolo[4,5-b]pyridin-2-yl)hexan-1-one], the “FAAH ABPP (10 µm) % Eff.” value was “N/A (N/A means less than 50% probe displacement at 10 µM inhibitor concentration)”. In the case of Cc1cccc(-c2cnc3nc(C(=O)CCCCCc4ccccc4)oc3c2)c1 [Compound 55, 6-phenyl-1-(6-(m-tolyl)oxazolo[4,5-b]pyridin-2-yl)hexan-1-one], the “FAAH ABPP (10 µm) % Eff.” value is reported as “N/A (N/A means less than 50% probe displacement at 10 µM inhibitor concentration)”. O=C(CCCCCc1ccccc1)c1nc2ncc(-c3ccccc3F)cc2o1 [Compound 57, 1-(6-(2-fluorophenyl)oxazolo[4,5-b]pyridin-2-yl)-6-phenylhexan-1-one] was tested, and the “FAAH ABPP (10 µm) % Eff.” value was “N/A (N/A means less than 50% probe displacement at 10 µM inhibitor concentration)”. For O=C(CCCCCc1ccccc1)c1nc2ncc(-c3ccc(F)cc3)cc2o1 [Compound 58, 1-(6-(4-fluorophenyl)oxazolo[4,5-b]pyridin-2-yl)-6-phenylhexan-1-one], the “FAAH ABPP (10 µm) % Eff.” value was “N/A (N/A means less than 50% probe displacement at 10 µM inhibitor concentration)”.
